Earlier results on one compound are cited in patent US20030236285A1, “Stabilized pharmaceutical compositions containing benzimidazole compounds” (priority 2002, published 2003).

For this data set the following is noted: pH higher than 7.

Each structure is given as a SMILES string.

For `Cc1c(OCC(F)(F)F)ccnc1C[S+]([O-])c1nc2ccccc2[nH]1` (stereo not shown) [lansoprazole], the rate of degradation entry is reported as “reduced to negligible”.
